Measured values reported in publication PMC6150310, “Synthesis and Structure–Activity Relationships of 4-Morpholino-7,8-Dihydro-5H-Thiopyrano[4,3-d]pyrimidine Derivatives Bearing Pyrazoline Scaffold” (Molecules : A Journal of Synthetic Chemistry and Natural …, 2017).

Columns and labels:
MCF-7 cell line = assay: MTT cytotoxicity assay, MCF-7; format: cell-based; details: Homo sapiens, MCF7, 72 h, average of two determinations, NA = No Activity
Experimental: (§1) Taking GDC-0941 as the reference compound, the target compounds (7a–l and 8a–l) were evaluated for the cytotoxicity against four cancer cell lines A549, PC-3, MCF-7, and HepG2 by 3-(4,5-dimethylthiazolyl-2)-2,5-diphenyltetrazolium bromide (MTT) cell proliferation assay. In order to confirm the types of target compound, selective or mixed-type inhibitors, the selected compound, 8d, was measured for its PI3Kα kinase inhibitory activity together with reference compounds GDC-0941 and PI103 via the Kinase-Glo® Luminescent […] assay. The results expressed as inhibition rates or IC50 values are summarized in Table 1 and Table 2, where the values are the average of at least two independent experiments.
(§2) The in vitro cytotoxic activities of Compounds 7a–l and 8a–l were evaluated with A549, PC-3, HepG2, and MCF-7 cell lines by the standard MTT assay, with GDC-0941 as a positive control. The cancer cell lines were cultured in minimum essential medium (MEM) supplement with 10% fetal bovine serum (FBS). Approximately, 4 × 10^3 cells, suspended in MEM medium, were plated onto each well of a 96-well plate and incubated in 5% CO2 at 37 °C for 24 h. The test compounds at the indicated final concentrations were added to the culture medium, and cell cultures continued for 72 h. Fresh MTT was added to each well at a terminal concentration of […] and incubated with cells at 37 °C for 4 h. The formazan crystals were dissolved in 100 µL of DMSO in each well, and the absorbency at 492 nm (for absorbance of MTT formazan) and 630 nm (for the reference wavelength) was measured with an enzyme linked immunosorbent assay (ELISA) reader (MR-96A Mindray Elisa Microplate Reader, Guangzhou, China). All compounds were tested three times in each of the cell lines. The results expressed as inhibition rates or IC50 were the averages of two determinations and calculated using the Bacus Laboratories Inc. Slide Scanner (Bliss) software (the Bacus Laboratories Inc. Slide Scanner (BLISS) system, Lombard, IL, USA).

PI3Kα = PI3Kα (Homo sapiens, UniProt P42336); assay: PI3Kα Kinase-Glo Luminescent Kinase Assay; format: biochemical; details: 1 µM ATP, 60 min, average of two determinations
PI3Kα, sequence (P42336 whole entry): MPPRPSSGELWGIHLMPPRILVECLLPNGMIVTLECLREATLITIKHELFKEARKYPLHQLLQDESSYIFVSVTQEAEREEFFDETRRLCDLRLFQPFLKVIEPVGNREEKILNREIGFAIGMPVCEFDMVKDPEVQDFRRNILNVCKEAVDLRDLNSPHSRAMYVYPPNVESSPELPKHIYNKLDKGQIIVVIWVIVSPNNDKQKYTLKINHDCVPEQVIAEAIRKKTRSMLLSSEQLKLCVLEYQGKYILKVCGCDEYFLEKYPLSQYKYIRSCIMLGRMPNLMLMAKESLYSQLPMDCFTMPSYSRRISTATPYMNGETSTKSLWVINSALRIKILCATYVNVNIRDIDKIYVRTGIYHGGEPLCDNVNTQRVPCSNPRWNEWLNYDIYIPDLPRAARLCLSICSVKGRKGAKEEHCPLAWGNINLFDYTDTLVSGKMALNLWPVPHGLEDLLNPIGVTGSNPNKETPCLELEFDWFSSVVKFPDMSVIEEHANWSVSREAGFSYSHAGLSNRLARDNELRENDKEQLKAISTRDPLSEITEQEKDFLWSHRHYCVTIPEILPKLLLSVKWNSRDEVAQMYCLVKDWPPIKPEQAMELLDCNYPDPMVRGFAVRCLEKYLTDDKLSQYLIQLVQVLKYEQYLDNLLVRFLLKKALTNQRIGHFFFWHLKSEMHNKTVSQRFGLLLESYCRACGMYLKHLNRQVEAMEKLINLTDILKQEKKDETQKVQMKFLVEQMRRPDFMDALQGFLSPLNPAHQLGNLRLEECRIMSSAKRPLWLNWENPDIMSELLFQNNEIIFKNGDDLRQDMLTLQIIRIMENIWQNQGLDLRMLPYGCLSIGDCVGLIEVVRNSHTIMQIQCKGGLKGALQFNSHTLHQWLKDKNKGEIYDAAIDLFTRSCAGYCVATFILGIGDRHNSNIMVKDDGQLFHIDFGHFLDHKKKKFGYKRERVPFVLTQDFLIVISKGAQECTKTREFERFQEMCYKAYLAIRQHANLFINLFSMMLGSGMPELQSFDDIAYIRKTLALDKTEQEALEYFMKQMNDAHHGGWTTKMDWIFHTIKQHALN
PI3Kα, sequence (P27986 whole entry partner): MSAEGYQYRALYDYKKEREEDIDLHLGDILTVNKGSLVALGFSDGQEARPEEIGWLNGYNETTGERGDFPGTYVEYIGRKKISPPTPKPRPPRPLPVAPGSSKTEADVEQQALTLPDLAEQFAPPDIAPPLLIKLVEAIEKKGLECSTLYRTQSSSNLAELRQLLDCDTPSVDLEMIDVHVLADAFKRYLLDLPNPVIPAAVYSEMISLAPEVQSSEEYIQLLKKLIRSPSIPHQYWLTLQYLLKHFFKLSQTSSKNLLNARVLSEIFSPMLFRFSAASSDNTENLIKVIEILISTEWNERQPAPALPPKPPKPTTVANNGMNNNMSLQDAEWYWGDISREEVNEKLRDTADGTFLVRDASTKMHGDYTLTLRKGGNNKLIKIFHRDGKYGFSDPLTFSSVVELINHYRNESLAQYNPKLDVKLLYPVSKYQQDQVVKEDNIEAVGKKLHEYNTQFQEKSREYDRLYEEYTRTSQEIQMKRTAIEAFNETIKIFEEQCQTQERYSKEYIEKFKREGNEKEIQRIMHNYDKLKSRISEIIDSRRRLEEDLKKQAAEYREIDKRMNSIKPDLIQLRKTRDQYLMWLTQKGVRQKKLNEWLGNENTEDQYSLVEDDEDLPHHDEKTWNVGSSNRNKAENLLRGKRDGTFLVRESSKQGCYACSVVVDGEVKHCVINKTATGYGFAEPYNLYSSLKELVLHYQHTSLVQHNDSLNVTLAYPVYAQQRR

[1] = system: four cancer cell lines (A549, PC-3, MCF-7, HepG2); assay: MTT cytotoxicity assay, four cancer cell lines together; format: cell-based; details: Homo sapiens, range over A549, PC-3, MCF-7, HepG2, read-out: IC50 values against four cancer cell lines
Experimental: as §1
The in vitro cytotoxic activities of Compounds 7a–l and 8a–l were evaluated with A549, PC-3, HepG2, and MCF-7 cell lines by the standard MTT assay, with GDC-0941 as a positive control. The cancer cell lines were cultured in minimum essential medium (MEM) supplement with 10% fetal bovine serum (FBS). […] The formazan crystals were dissolved in 100 µL of DMSO in each well, and the absorbency at 492 nm (for absorbance of MTT formazan) and 630 nm (for the reference wavelength) was measured with an enzyme linked immunosorbent assay (ELISA) reader (MR-96A Mindray Elisa Microplate Reader, Guangzhou, China). […]

A549 cell line = assay: MTT cytotoxicity assay, A549; format: cell-based; details: Homo sapiens, A549, 72 h, average of two determinations, NA = No Activity
Experimental: as §1, §2

PC-3 cell line = assay: MTT cytotoxicity assay, PC-3; format: cell-based; details: Homo sapiens, PC-3, 72 h, average of two determinations, NA = No Activity
Experimental: as §1, §2

HepG2 cell line = assay: MTT cytotoxicity assay, HepG2; format: cell-based; details: Homo sapiens, HepG2, 72 h, average of two determinations, NA = No Activity
Experimental: as §1, §2

Compound | IC50 (MCF-7 cell line) [µM] | IC50 (PI3Kα) [µM] | IC50 [1] [µM] | IC50 (A549 cell line) [µM] | IC50 (PC-3 cell line) [µM] | IC50 (HepG2 cell line) [µM] | melting point [°C]
O=S1(=O)CCc2nc(N3N=C(c4ccc(F)cc4)C[C@@H]3c3ccc(Cl)c(Cl)c3)nc(N3CCOCC3)c2C1 (racemic) [Compound 8d, (R)-2-(5-(3,4-Dichlorophenyl)-3-(4-fluorophenyl)-4,5-dihydro-1H-pyrazol-1-yl)-4-morpholino-7,8-dihydro-5H-thiopyrano[4,3-d]pyrimidine 6,6-dioxide] | 10.3 ± 0.94 | 8.38 ± 0.21 | 6.02 to 10.3 | – | – | – | –
COc1ccc(C2=NN(c3nc4c(c(N5CCOCC5)n3)CSCC4)[C@@H](c3ccc(F)cc3)C2)cc1 [Compound 7h, (R)-4-(2-(5-(4-Fluorophenyl)-3-(4-methoxyphenyl)-4,5-dihydro-1H-pyrazol-1-yl)-7,8-dihydro-5H-thiopyrano[4,3-d]pyrimidin-4-yl)morpholine] | 30.3 ± 0.88 | – | – | 26.7 ± 0.88 | 29.8 ± 0.89 | 20.5 ± 0.67 | 116 to 118
Cc1ccc(C2=NN(c3nc4c(c(N5CCOCC5)n3)CSCC4)[C@@H](c3ccc(Cl)c(Cl)c3)C2)cc1 [Compound 7b, (R)-4-(2-(5-(3,4-Dichlorophenyl)-3-(p-tolyl)-4,5-dihydro-1H-pyrazol-1-yl)-7,8-dihydro-5H-thiopyrano[4,3-d]pyrimidin-4-yl)morpholine] | 42.6 ± 1.75 | – | – | 24.2 ± 0.74 | 14.1 ± 3.45 | 27.8 ± 0.99 | 194 to 196
O=S1(=O)CCc2nc(N3N=C(c4ccc(F)cc4)C[C@@H]3c3ccc(F)cc3)nc(N3CCOCC3)c2C1 [Compound 8g, (R)-2-(3,5-bis(4-Fluorophenyl)-4,5-dihydro-1H-pyrazol-1-yl)-4-morpholino-7,8-dihydro-5H-thiopyrano[4,3-d]pyrimidine 6,6-dioxide] | 35.3 ± 0.39 | – | – | 29.1 ± 0.49 | 21.8 ± 0.67 | 36.01 ± 0.18 | 246 to 249
